One compound from US11007183B2, “Cancer treatments using combinations of PI3K/Akt pathway and ERK inhibitors” (BIOMED VALLEY DISCOVERIES, INC., priority 2013, dated 2021) can be followed below.

The nature of data set [1]: Toxicity (body weight, deaths, clinical signs) in the HCT116 xenograft study. The class given is in vivo, mice. Particulars: for Deaths NTR / Deaths TR: po, 45 days. The method, then:
Animals were weighed daily on Days 1-5, then twice per week until completion of the study. The mice were observed frequently for overt signs of any adverse, TR side effects, and clinical signs were recorded when observed. Individual BW loss was monitored as per protocol, and any animal whose weight exceeded the limits for acceptable BW loss was euthanized. Group mean BW loss also was monitored as per protocol. Dosing was to be suspended in any group that exceeded the limits for acceptable mean BW loss. If mean BW recovered, then dosing was to be resumed in that group, but at a lower dosage or less frequent dosing schedule. Acceptable toxicity for the maximum tolerated dose (MTD) was defined as a group mean BW loss of less than 20% during the study and not more than 10% TR deaths. A death was classified as TR if attributable to treatment side effects as evidenced by clinical signs and/or necropsy, or may also be classified as TR if due to unknown causes during the dosing period or within 14 days of the last dose. A death was classified as NTR if there was no evidence that death was related to treatment side effects. NTR deaths may be further characterized based on cause of death. A death was classified as NTRa if it resulted from an accident or human error. […] A death was classified as NTRu if the cause of death was unknown and there was no available evidence of death related to treatment side effects, metastasis, accident or human error, although death due to treatment side effects cannot be excluded.

Data set [2] deals with HCT116 PIK3CA (+/−) cells. The data set is described as follows: Combination proliferation assay (Loewe/Bliss). The class given is cell-based, human. Particulars: 2.5% serum. The method, then: Test compounds were incubated with the cells for 72 h at 37° C., 5% CO2 in a humidified atmosphere. CellTiter-Glo® reagent (Promega, Madison, Wis.) was added according to manufacturer's instructions and luminescence detected using the BMG FLUOstar plate reader (BMG Labtech, Ortenberg, Germany). The average media only background value was deducted and the data analysed. For the 10×8 combination assays the combination interactions across the dose matrix were determined by the Loewe Additivity and Bliss independence models using ChaliceTM Combination Analysis Software (Horizon Discovery Group, Cambridge, Mass.) as outlined in the user manual (available at chalice.horizondiscovery.com/chalice-portal/documentation/analyzer/home.jsp). Synergy is determined by comparing the experimentally observed level of inhibition at each combination point with the value expected for additivity, which is derived from the single-agent responses along the edges of the matrix. Potential synergistic interactions were identified by displaying the calculated excess inhibition over that predicted as being additive across the dose matrix as a heat map, and by reporting a quantitative 'Synergy Score' based on the Loewe model. The single agent data derived from the combination assay plates were presented as dose-response curves generated in GraphPad Prism (GraphPad Software, La Jolla, Calif.) (plotted using percentage viability relative to DMSO only treated controls). […] (Cbliss is the fractional inhibition that would be expected if the combination of the two drugs were exactly additive). Cbliss values were then subtracted from the experimentally observed fractional inhibition values to give an 'excess over Bliss' value which were plotted as heat maps±SD.

SMILES strings stand for the structures. “Also recorded” adds a separate entry of the source.

As a reminder, the IC50 is the concentration at which inhibition is half-maximal. In the case of `CC(C)Nc1cc(-c2c[nH]c(C(=O)N[C@H](CO)c3cccc(Cl)c3)c2)c(Cl)cn1` [BVD-523], the “Tolerability relative to the MTD” value in data set [1] (Group 5: BVD-523 100 mg/kg p.o. bid to end, 100 mg/kg) was “above the MTD; also recorded: above the maximum tolerated dose”. Also, in data set [1] (mouse, in vivo, 50 mg/kg), the Adverse clinical signs result is recorded as “no noteworthy adverse clinical signs”, the “Deaths NTR” value worked out at 0 and the “Deaths TR” value is 0. In data set [1] (mouse, in vivo, 100 mg/kg), the “Deaths NTR” value is reported as 0 and the “Deaths TR” value came out at 4. Further, the “Single agent sensitivity relative to the parental line” value in data set [2] (HCT116 line lacking the PIK3CA mutation vs parental) was “more sensitive”. Further, the 50% inhibitory concentration (IC50) in data set [2] (Homo sapiens, HCT-116, HCT116 PIK3CA (+/−), mean of n=4 separate combinations, read-out: IC50 (single agent, derived from combination assay plates)) was 40 nM.
